# Entries after “also recorded” stand apart in the source; their conditions may differ.
# System: Influenza A/WSN/33
# Type: cell-based
smiles,measurement,value
O=C(/C=C\n1cnc(-c2cc(C(F)(F)F)cc(C(F)(F)F)c2)n1)NNc1ccccn1 [verdinexor],Sensitivity of passaged virus to verdinexor,did not result in a reduction of drug sensitivity; also recorded: remained sensitive

# Reference: paper PMC5125695, “Antiviral Efficacy of Verdinexor In Vivo in Two Animal Models of Influenza A Virus Infection” (PLoS ONE, 2016)
